In patent US20130345061A1 (priority 2011, published 2013):
Values joined by “and” are separate entries in the source; they are usually repeats but may differ in a detail not shown here. Identical values can stand only once. Like-named read-outs stand apart in the source and are kept apart here.

Test system: Pseudomonas syringae pv. porri
Assay type: in vivo
Conditions: for % infection / Total number of positive leaves per object: repeats A and B
[1] = wetting agent 0, leek, natural washing off 15 mm, reading after 8 weeks
[2] = wetting agent (emulsion according to the invention) 0.25%, CuSO4 6 g/L
[3] = wetting agent (emulsion according to the invention) 0.50%, CuSO4 6 g/L
[4] = wetting agent (emulsion according to the invention) 1.00%, CuSO4 6 g/L

O=S(=O)([O-])[O-].[Cu+2] [CuSO4, copper sulfate]
significant difference to reference product Phyton 27 (statistical test) (copper sulfate with the wetting agent at 0.5% or 1%): equivalent to the reference product | % infection [1]: 52% and 49% | Total number of positive leaves per object [1]: 29 | % infection [2]: 35% and 37% | Total number of positive leaves per object [2]: 18 and 17 | % infection [3]: 31% | Total number of positive leaves per object [3]: 17 and 16 | % infection [4]: 25% and 27% | Total number of positive leaves per object [4]: 13 and 15 | leaves attacked / level of infection per mode (without wetting agent, value for the whole mode): more than 50%
